The values that follow are results of earlier work, collected in US20180263245A1, “WATER-BASED DISINFECTANT” (priority 2015, published 2018).

Each structure is given as a SMILES string.

The conditions of series [1]: EPA.
For series [2], the system named is bacteria. The conditions noted are these: without the Cu π-complex.

As for `CCCCCCCCCCCC[N+](C)(C)Cc1ccccc1.[Cl-]` [C12 Quaternary Ammonium Chloride, Dodecyl Dimethyl Benzyl Ammonium Chloride], in series [1], the genetic toxicity result was “does not believe it is a genetic toxicant”, the reproductive risks result is reported as “does not believe it poses unacceptable reproductive risks” and the tumors entry was “negative for introduction of tumors”. In addition, the “bacterial reduction versus FDA minimum performance standards” value in series [2] was “exceeded the FDA-indicated minimum performance standards”.
